According to patent US4738979A, “α2 -blocking derivatives of imidazole” (G. D. Searle & Co., priority 1985, dated 1988):

Experiments:
[1] = tested on: bicuculline-induced tonic extension in mice; assay: protection against bicuculline-induced tonic extension in mice; assay type: in vivo; conditions: Mus musculus, iv, 3 hours prior to bicuculline 0.7 mg/kg i.v., read-out: Anticonvulsive effect (versus Bicuculline) (% Protection)
Protocol: In the second study the anti-convulsant effect of the compounds of the present invention was examined in two seizure models; bicuculline-induced tonic extension in mice and 3-mercaptopropionic acid (3-MPA)-induced tonic extension in mice.
In the bicuculline study, the ability of the compounds of the present invention to protect against tonic extension (involving rigidity) was evaluated as follows. Each test compound was administered to a group of ten mice at a dose of 10 mg/kg, 3 hours prior to the i.v. administration of bicuculline (0.7 mg/kg). Anticonvulsant activity in this test is expressed as percentage of animals tested. The results are given in Table II, column 6, and indicate that several compounds display significant anticonvulsive activity in this test. The anticonvulsant effect of the compounds has also been tested with respect to the tonic extension induced by 3-mercaptopropionic acid (120 mg/kg subcutaneously) in mice.

[2] = tested on: α1 -adrenergic receptors; assay: binding to α1-adrenergic receptors on rat brain homogenates (3H-WB 4101); conditions: 1.6 nM 3H-WB 4101
Protocol: (§1) The activity of the compounds according to the invention with respect to binding of the α-adrenergic receptors was determined in vitro according to a method deriving from the works of B. R. Rouot et al., Life Sci., 25, 769 (1979) and of D. U'Prichard et al., Mol. Pharmacol., 13, 454 (1977). This method consists in measuring the binding to the receptor on rat brain homogenates, by marking by means of a specific tritriated ligand placed in competition with the product to be tested.
(§2) In the presenct case the binding to the α1 -adrenergic receptors was measured by means of 1.6 nM of ^3 H-WB 4101 and the binding to the α2 -adrenergic receptors by means of 0.7 nM of ^3 H-p. aminoclonidine, the non-specific binding being determined by 1,000 nM of phentolamine. The results are given in Table II, column 3, and are expressed in terms of percentage of inhibition of the specific binding of 10^-7 molar compound concentration.
(§3) (2) The specific binding is the total binding less the nonspecific
(§4) binding. The total binding is the binding in the absence of nonradioactiv
(§5) drug. The nonspecific binding is the binding in the presence of 1,000 nM
(§6) of phentolamine. The products of the invention are tested at a
(§7) concentration of 10^-7 molar.

[3] = tested on: α2 adrenergic receptors of the central nervous system; assay: inhibition of the antihypertensive action of clonidine in spontaneously hypertensive rats (SHR); assay type: in vivo, rat; conditions: 1 mg/kg p.o., clonidine 50 μg/kg s.c.
Protocol: In the first study, carried out upon unanaesthetized spontaneously hypertensive rats (SHR rats), the ability of the compounds of the present invention to inhibit the antihypertensive action of clonidine was determined.
The antihypertensive activity of clonidine results from an interaction with α2 adrenergic receptors of the central nervous system, i.e., central antihypertensive actions.
In this test, two groups of SHR rats are utilized as follows. In the first group, prior to subcutaneous administration of clonidine (50 μg/kg), the SHR rats are treated with the compound to be tested (1 mg/kg p.o.) dissolved in a saline vehicle. The second group (control group) of SHR rats are treated with the saline vehicle only, prior to subcutaneous administration of clonidine.
The arterial pressure is measured in the region of the median coccygeal artery according to the method of J. Roba, A. F. DeSchaepdrijver, Exp. Anim., 4, 147-162 (1971).
The results of this assay summarized in Table II, column 5, are expressed as a percentage of inhibition of the effect of clonidine.

[4] = target: T1, α2 -adrenergic receptors (Rattus norvegicus, UniProt P22909); assay: binding to α2-adrenergic receptors on rat brain homogenates (3H-p. aminoclonidine); conditions: 10^-7 M; rat brain homogenates; 0.7 nM 3H-p. aminoclonidine; read-out: % Inhibition of the Specific Binding at 10^-7 M for α2 Recep.
T1 construct: from tissue; host or cells: rat brain homogenates
T1 sequence (P22909 1-465): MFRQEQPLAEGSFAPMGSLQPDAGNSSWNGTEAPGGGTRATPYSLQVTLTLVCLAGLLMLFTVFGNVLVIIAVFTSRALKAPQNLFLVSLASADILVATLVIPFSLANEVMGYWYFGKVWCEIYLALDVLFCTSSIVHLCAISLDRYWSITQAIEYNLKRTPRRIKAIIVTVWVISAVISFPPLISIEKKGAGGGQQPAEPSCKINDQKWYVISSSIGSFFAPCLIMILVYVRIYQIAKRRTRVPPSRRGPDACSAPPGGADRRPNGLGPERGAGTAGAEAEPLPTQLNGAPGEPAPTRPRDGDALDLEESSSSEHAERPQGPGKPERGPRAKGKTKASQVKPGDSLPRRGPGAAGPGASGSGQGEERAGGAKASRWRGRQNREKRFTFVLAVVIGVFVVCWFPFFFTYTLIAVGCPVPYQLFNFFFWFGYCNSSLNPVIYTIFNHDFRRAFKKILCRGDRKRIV
Protocol: as §1, §2, §3, §4, §5, §6, §7

[5] = acute toxicity after oral administration to mice (LD50); conditions: mouse, in vivo, 15 days mortality
Protocol: The acute toxicity of the compounds of the present invention was studied after oral administration to mice. The products to be tested, suspended in a 1% tragacanth gum mucilage, were administered by means of an intragastric probe to groups of three male mice which had fasted since the preceding day. The doses tested are a function of the effect observed and can vary from 3,000 to 3 mg/kg or less. The mortality was recorded for 15 days. The lethal dose for 50% of the animals (LD50) was calculated according to the method of J. Litchfield and F. Wilcoxon, J. Pharmacol. Exp. Ther., 96, 99 (1949) and expressed in mg/kg. The effect of the products on the behaviour of the animals is observed until 5 to 6 hours after the treatment indicated above and after 24 hours, using a method derived from that of S. Irwin, described by R. A. Turner, Screening Methods in Pharmacology, Chapter 3, pages 22-34, Academic Press, 1965. If anomalies are noted, the observation is prolonged and smaller doses are tested.

[6] = target: T2, α2 -adrenergic receptors (Cavia porcellus, UniProt Q60474); assay: α2 antagonist and α2 agonist activity in isolated guinea pig ileum (clonidine)
T2 construct: from tissue; host or cells: isolated guinea pig ileum
T2 sequence (Q60474 1-464): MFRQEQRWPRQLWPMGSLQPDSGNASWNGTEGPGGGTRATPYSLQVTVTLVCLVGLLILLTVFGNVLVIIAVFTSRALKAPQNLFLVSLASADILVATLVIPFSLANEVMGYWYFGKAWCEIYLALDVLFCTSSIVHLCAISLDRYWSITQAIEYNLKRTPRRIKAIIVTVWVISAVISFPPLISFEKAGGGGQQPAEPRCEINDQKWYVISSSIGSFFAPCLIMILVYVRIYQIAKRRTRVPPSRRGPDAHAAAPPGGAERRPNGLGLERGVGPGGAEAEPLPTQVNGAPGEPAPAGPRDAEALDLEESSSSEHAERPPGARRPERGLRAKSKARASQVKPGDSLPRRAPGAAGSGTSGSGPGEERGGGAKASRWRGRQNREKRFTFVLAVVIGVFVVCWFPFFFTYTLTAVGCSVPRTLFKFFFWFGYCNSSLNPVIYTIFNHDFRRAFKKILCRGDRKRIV
Protocol: The α2 antagonist and α2 agonist activity of the compounds according to the invention was determined upon isolated organs according to a model described by G. M. Drews, Br. J. Pharmaco., 64, 293-300 (1978).
This model is based upon the principle that the stimulation of the cholinergic nervous transmissions of the guinea pig ileum causes the liberation of acetyl choline, which in turn causes contractions of the ileum.
The stimulation of the α2 -adrenergic receptors inhibits the activity of the cholinergic nerve and consequently reduces all response resulting from a timulation of the latter. Thus the contractions of the ileum induced by electric stimulation of the tissue are inhibited by clonidine, an α2 agonist, in proportion to the dose. This inhibition is specifically displaced by the α2 antagonists and not by the α1 antagonists.
The method utilized can be summarized as follows: three dose-response curves to clonidine are established at an interval of 60 minutes. Two concentrations of the product to be tested are added successively 10 minutes before the realization of the second and third clonidine curves. Next, after washing, a dose-response curve is established with the product to be tested.
The dose-response curves are calculated as a percentage of the maximum inhibition obtained for the first curve. In this system the products having an α2 antagonist activity displace the dose-response curve to clonidine. The α2 antagonist activity, expressed in pA2 value, shown in column 4, is calculated according to J. M. Van Rossum, Arch. Int. Pharmacodyn., 143, 299-300 (1963).
A reduction of the contractions induced by the tested product alone indicates an α2 agonist effect. This activity is expressed in--log ED50 (the--logarithm of the concentration of the product giving 50% of the maximum inhibition obtained with clonidine).
The higher the pA2 value, the higher the α2 antagonist activity; the higher the--log ED50 value (i.e., the pA2 agonist activity), the higher the α2 agonist activity.

Row | Compound | responders at 10 mg/kg [1] [%] | % Inhibition of the Specific Binding at 10^-7 M for α1 Recep. [2] [%] | α2 Antagonist (% Inhibition of the Antihypertension of Clonidine) [3] [%] | inhibition at 0.1 µM [4] [%] | LD50 at 360 h [5] [mg/kg] | EC50 ([6]; 50% of maximum inhibition obtained with clonidine, read-out: α2 Agonist Activity (-log ED50) (converted)) [nM] | Kb ([6]; versus clonidine, read-out: α2 Antagonist Activity (pA2) (converted)) [nM]
1 | COC(c1c[nH]cn1)C(c1ccccc1)c1ccccc1 (stereo not shown) [Compound 6] | 30 | 0 | 62 | 0 |  |  | 
2 | O=C(O)c1ccccc1C(Cc1c[nH]cn1)c1ccccc1 (stereo not shown) [Compound 30] |  | 12 |  | 1 | > 300 |  | 
3 | CCCC(OC)(c1c[nH]cn1)C(c1ccccc1)c1ccccc1 (stereo not shown) [Compound 20, 4(5)-[2-(1,1-diphenyl-2-methoxy)-pentyl]imidazole] | 60 | 0 | 62 | 6 | > 300 |  | 
4 | COC(=O)c1ccccc1C(Cc1c[nH]cn1)c1ccccc1 (stereo not shown) [Compound 31] |  | 13 |  | 20 |  |  | 
5 | c1ccc(C(Cc2c[nH]cn2)(c2ccccc2)c2ccccc2)cc1 [Compound 8] | 20 | 0 | 28 | 0 | 1.75 |  | 
6 | COC(c1c[nH]c(C)n1)C(c1ccccc1)c1ccccc1 (stereo not shown) [Compound 26] | 10 | 1 |  | 2 | 350 |  | 
7 | Cc1nc(CC(c2ccccc2)c2ccccc2)c[nH]1 [Compound 25, 4(5)-(2,2-diphenylethyl)-2-methylimidazole] | 10 | 0 | 87 | 3 |  |  | 
8 | CCCC(=C(c1ccccc1)c1ccccc1)c1c[nH]cn1 [Compound 18, 4(5)-[(2,2-diphenyl-1-n.propyl)-ethenyl]-imidazole] | 50 | 0 | 47 | 0 | 270 |  | 
9 | OC(c1c[nH]cn1)C(c1ccccc1)c1ccccc1 (stereo not shown) [Compound 5] | 30 | 3 | 24 | 2 | > 300 |  | 
10 | CCCC(c1c[nH]cn1)C(c1ccccc1)c1ccccc1 (stereo not shown) [Compound 19, 4(5)-[2-(1,1-diphenyl)pentyl]imidazole] | 40 | 4 | 75 | 15 | 350 |  | 
11 | CC(=C(c1ccccc1)c1ccccc1)c1c[nH]cn1 [Compound 2, 4(5)-[(2,2-diphenyl-1-methyl)ethenyl]imidazole] | 20 | 3 | 71 | 43 |  | 2510 | 50.1
12 | C(=C(c1ccccc1)c1ccccc1)c1c[nH]cn1 [Compound 11] | 40 | 6 | 48 | 9 |  |  | 
